EC50 and inhibition data for six compounds are collected here from US10703748B2, “Diazanaphthalen-3-yl carboxamides and preparation and use thereof” (Samumed, LLC, priority 2017, dated 2020).

Structures are written as SMILES.

Test [1] relates to α-smooth muscle actin (aSMA) positive LL29 cells. The test is described as follows: Inhibition of the fibrotic process: αSMA staining in TGF-β1 treated LL29 fibroblasts from IPF patients. The settings on record: Homo sapiens, Fibroblast; for EC50: 96 h; for inhibition at 10 µM: read-out: percentage in parentheses after EC50 >10.
Test [2] concerns secreted cytokines TNFα, IL-6 and KC-GRO. Briefly: Secreted cytokines in Lipopolysaccharide-stimulated BV-2 cells (Table 9 does not say which cytokine). The test is classed as cell-based, mouse. The settings on record: Mus musculus, BV-2, 5 h; read-out: EC50.
Test [3] has as its system Tau phosphorylation at Ser396 (pSer396). The test is described as follows: Tau phosphorylation at Ser396 (pSer396) in SH-SY5Y cells, ELISA / western blot.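 Also: decrease in pSer396 Tau measured in lysates of treated cells by colorimetric ELISA or chemiluminescent western blot, same pSer396 antibody for both.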 The test is classed as cell-based, human. The settings on record: Homo sapiens; SH-SY5Y cells, overnight (16-18 h); read-out: pSer396 Tau EC50. A general note: In an ELISA, binding on a coated surface is turned into a signal by an enzyme label.
Experimental: Two days before treatment, cells were seeded onto 96 well plates at 5×10^4 cells/well.
The above synthesized compounds were screened using the cell assay procedure to assess decrease Tau phosphorylation at Ser396 (pSer396) described below.
Cells were lysed with RIPA buffer complemented with phosphatase and protease inhibitors then lysates were spun down at 12,000 g for 10 min to remove any cellular debris.

In test [4] the test system is SW480 colon carcinoma cells. The test is described as follows: Cell viability assay (CellTiter-Glo). The settings on record: Homo sapiens; for EC50: SW480, 96 h; for inhibition at 10 µM: SW480, read-out: percent inhibition at 10 μM.
Test [5] addresses GSK3β kinase (Homo sapiens, UniProt P49841). Briefly: GSK3β kinase activity (Ser/Thr 09 peptide Z-lyte FRET assay). The test is classed as biochemical. The note with it: recombinant kinase, 46 μM ATP, one hour at room temperature; read-out: EC50.
In test [6] the test system is IL-6. Briefly: IL-6 inhibition in LPS-stimulated human peripheral blood mononuclear cells (HTRF). The note with it: Homo sapiens, PBMC; for EC50: 22 h; for inhibition at 10 µM: read-out: percentage in parentheses after EC50 >10. On the technique in general: In TR-FRET formats the signal depends on donor and acceptor labels being close together.
The target of test [7] is DYRK1A kinase (Homo sapiens, UniProt Q13627). The test is described as follows: DYRK1A kinase activity (Ser/Thr 18 peptide Z-lyte FRET assay).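 Also: kinase activity read as coumarin/fluorescein emission ratio after development step, with unphosphorylated and phosphorylated peptide forms setting 0% and 100% controls, values from dose-response curves.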 The test is classed as biochemical. The settings on record: recombinant DYRK1A, 30 μM ATP, one hour at room temperature.
Test [8] concerns Wnt-responsive Sp5-Luc reporter in SW480 colon carcinoma cells. The test is described as follows: Screening assay for Wnt activity (Sp5-Luc reporter gene assay). The note with it: Homo sapiens; for EC50: SW480; for inhibition at 10 µM: SW480, read-out: percent inhibition at 10 μM. Background: In a reporter assay the amount or activity of a reporter protein is the signal.

GSK3β kinase, sequence (P49841 whole entry): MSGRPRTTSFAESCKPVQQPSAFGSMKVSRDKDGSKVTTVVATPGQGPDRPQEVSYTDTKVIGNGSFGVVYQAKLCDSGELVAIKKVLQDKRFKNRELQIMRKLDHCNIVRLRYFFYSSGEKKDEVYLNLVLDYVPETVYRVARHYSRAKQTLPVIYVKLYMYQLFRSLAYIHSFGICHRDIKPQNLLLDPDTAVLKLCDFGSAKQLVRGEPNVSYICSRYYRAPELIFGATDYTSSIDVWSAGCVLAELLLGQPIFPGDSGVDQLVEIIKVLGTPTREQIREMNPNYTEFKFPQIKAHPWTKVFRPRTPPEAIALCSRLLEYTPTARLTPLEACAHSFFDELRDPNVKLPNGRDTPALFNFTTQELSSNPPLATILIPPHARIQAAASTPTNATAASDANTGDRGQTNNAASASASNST

`Cn1cc(-c2cc3cc(NC(=O)C4CC4)ncc3cn2)cn1` [Compound 3629, N-(6-(1-Methyl-1H-pyrazol-4-yl)-2,7-naphthyridin-3-yl) cyclopropanecarboxamide]: the EC50 (usually the midpoint of the concentration-response curve) in test [1] is 0.097 µM; in test [2], 5.7 µM; in test [3], 0.021 µM; in test [4], 0.951 µM; in test [5], 0.002 µM; in test [6], 2.77 µM. Further, the 50% effective concentration (EC50) stood at 0.007 µM in test [7] and 0.396 µM in test [8].

Turning to `Cn1cncc1-c1cnc2cnc(NC(=O)C3CCC(F)(F)CC3)cc2c1` [Compound 3120, 4,4-Difluoro-N-(3-(1-methyl-1H-imidazol-5-yl)-1,7-naphthyridin-6-yl) cyclohexane-1-carboxamide], the EC50 in test [1] was more than 10 µM; in test [2], 0.649 µM; in test [3] it was 2.43 µM; in test [4] it was more than 10 µM; in test [5], 1.33 µM; in test [6] it was more than 10 µM. Moreover, the EC50 in test [7] is 0.009 µM; in test [8] it was more than 10 µM. Moreover, the inhibition at 10 µM in test [1] is 27%; in test [4] it was 21.4%; in test [6], 7.4%; in test [8], 16.2%.

In the case of `CN1CCC(C(=O)Nc2ncc3ccc(-c4cnsc4)cc3n2)CC1` [Compound 1598, N-(7-(Isothiazol-4-yl)quinazolin-2-yl)-1-methylpiperidine-4-carboxamide], the 50% effective concentration (EC50) in test [1] was 1.27 µM; in test [2], 3.1 µM; in test [3], more than 10 µM; in test [4], more than 10 µM; in test [5], 4.18 µM; in test [6] it was more than 10 µM. The EC50 in test [7] is 0.027 µM; in test [8] it was more than 10 µM. Besides, the inhibition at 10 µM in test [4] was found to be 8.4%; in test [6], 7.5%; in test [8], 15.5%.

Turning to `CN1CCC(Oc2ccc(C(=O)Nc3cc4cc(-c5cnn(C)c5)ncc4cn3)cc2)CC1` [Compound 3772, N-(6-(1-Methyl-1H-pyrazol-4-yl)-2,7-naphthyridin-3-yl)-4-((1-methylpiperidin-4-yl)oxy)benzamide], the EC50 in test [1] was 1.14 µM; in test [2], not below 10 µM; in test [3], 7.28 µM; in test [4], 8.16 µM; in test [5], 0.39 µM; in test [6], more than 10 µM. Besides, the results for the EC50 in test [7] and in test [8] were 0.008 µM and 0.221 µM, respectively. For the same compound, in test [6], the inhibition at 10 µM amounted to 10.6%.

Turning to `Cc1nnc(-c2ccc3cnc(NC(=O)C4CCN(C(=O)c5ccccc5)CC4)nc3c2)s1` [Compound 1625, 1-Benzoyl-N-(7-(5-methyl-1,3,4-thiadiazol-2-yl)quinazolin-2-yl)piperidine-4-carboxamide], the EC50 was 1.77 µM in test [1]; 0.436 µM in test [2]; 0.402 µM in test [3]; more than 10 µM in test [4]; 0.008 µM in test [5]; more than 10 µM in test [6]. Besides, the EC50 in test [7] was 0.025 µM; in test [8], more than 10 µM. Besides, the inhibition at 10 µM in test [4] amounted to 18.8%; in test [6], 4%; in test [8] it was 37.3%.

Regarding `Cn1cncc1-c1cc2cc(NC(=O)C3CCC(F)(F)CC3)ncc2cn1` [Compound 4027, 4,4-Difluoro-N-(6-(1-methyl-1H-imidazol-5-yl)-2,7-naphthyridin-3-yl) cyclohexane-1-carboxamide], the EC50 in test [1] is more than 10 µM; in test [2], not below 10 µM; in test [3], 0.219 µM; in test [4], more than 10 µM; in test [5] it was 0.072 µM; in test [6] it was more than 10 µM. Moreover, the EC50 in test [7] was 0.021 µM; in test [8], more than 10 µM. Besides, the inhibition at 10 µM was found to be 33.9% in test [1], 26.3% in test [4], 4% in test [6] and 17.5% in test [8].
